Test [1] has as its system MHCC97H and SMMC 7721 cells. The experiment in a line: CCK8 cell viability screen of mulberry active substances. It counts as cell-based, human. Particulars: 10 μM, 48 h. The procedure:
The CCK8 assay is used to investigate the effect of compounds on cell viability by measuring the amount of formazan dye. Firstly, 8000 cells were inoculated into each well of the 96-well plate with three replicates per condition. At the same time, add the corresponding mulberry active substances. After 48 h of incubation, 20 μL of the Cell Counting Kit-8 (CCK8) reagent (Beyotime, Shanghai, China) was added to each well. After being cultured under 37 °C and 5% carbon dioxide for 2–3 h, the absorbance was measured at 450 nm.

Test [2] concerns nuclear translocation of ERK. The experiment in a line: ERK nuclear translocation (nuclear/cytoplasmic extraction, immunofluorescence). The test is classed as cell-based, human. Particulars: 10 μM, 48 h, confocal microscopy.
Description: After treating HCC cells with KA or DMSO, the cells were collected by cell scraping. Adding an appropriate amount of PMSF and reagent A (Nuclear and Cytoplasmic Protein Extraction Kit, Beyotime, Shanghai, China). Vortexed and then ice bathed for 15 min. Adding the reagent B provided in the kit mentioned before. Then vortexed and ice bathed for 1 min. Vortexed again. Centrifuged at 14,000× g for 5 min. The supernatant was cytoplasmic protein. Adding a certain amount of nuclear protein extraction reagent to the precipitate. Multiple vortices within 30 min. Centrifuged at 14,000× g for 10 min. The obtained supernatant was the nuclear protein.
The test system of test [3] is HCC cells (MHCC97 H and SMMC 7721). The experiment in a line: Transwell migration (without Matrix-Gel) and invasion (with Matrix-Gel) assay. The test is classed as cell-based, human. The method, then: The Transwell assay measured the migration and invasion of cells by calculating the number of cells that passed through the material. Prior to the Transwell migration assay, cells were serum-starved in FBS-free culture medium for 24 h. The cells were then detached using trypsin, washed 1–2 times with PBS, and resuspended in DMEM. Approximately 50,000–100,000 cells were seeded into the upper chamber of the Transwell insert. The lower chamber was filled with 600 μL of complete medium containing the test compound. […] After incubation, the migrated cells on the lower membrane surface were fixed with 4% paraformaldehyde (PFA) and stained with 0.1% crystal violet. Non-migrated cells remaining in the upper chamber were carefully removed with a cotton swab. Finally, the stained cells were visualized under a microscope. If matrix gel was needed, it should be added according to the instructions (Beyotime, Shanghai, China) before the cells were seeded.

Test [4] shares this test system. The experiment in a line: Cell wound healing assay. It counts as cell-based, human. Particulars: 48 h, vs DMSO. The method, then:
We seeded the cells in 6-well plates and allowed them to adhere and grow to full confluence. Then, we gently scratched the cell monolayer in a straight line using a sterile pipette tip. We rinsed the wells with PBS to remove detached cells and debris. We captured bright-field images of the scratched area at baseline (0 h). We replaced the medium with DMEM containing KA or DMSO and continued incubation. We re-imaged the same wound areas at 24 h and 48 h post-scratch. We quantified cell migration by measuring wound closure (%) over time using image analysis software.

Test [5] concerns MHCC97 H cells injected into the liver. Kind of test: Orthotopic hepatocellular carcinoma xenograft survival. Particulars: 30 mg/kg intraperitoneal, every two days, 45 days. The test is classed as in vivo, BALB/c-nu mice. The text has this:
Thirty-six female BALB/c-nu mice, four weeks old (supplied by Slike Jingda Laboratory Animal Co., Ltd., Changsha, China; Animal qualification number: SCXK-2019-0004), were housed in an SPF room. […] Therefore, female mice were selected for this study; 12 mice were used to establish the hepatocellular carcinoma xenografts. MHCC97 H cells (1 × 10^5 cells) were slowly injected into the left lobe of the mouse liver after being anesthetized with isoflurane. Three days later, the mice received intraperitoneal injections of KA (30 mg/kg) every two days for 45 days. Control mice were administered DMSO injections. Recorded the survival status of the animals. Prior to liver collection, the mice were anesthetized with isoflurane to minimize pain and euthanized by cervical dislocation. Ethics approval serial number: IACUC-20240613-03. Animal experiments were conducted in accordance with the Guide for the Care and Use of Laboratory Animals (Ministry of Science and Technology of China, 2006).

For test [6], the system named is phosphorylation of MEK1/2 and ERK1/2. Kind of test: Western blot of MAPK pathway. The test is classed as cell-based, human. The method, then: Cells were harvested using a cell scrape and washed three times with PBS buffer, then lysed on ice in RIPA lysis buffer (Beyotime, Shanghai, China). Protein concentration was determined using a BCA protein assay kit (Beyotime, Shanghai, China). Subsequently, 60 µg of protein was mixed with 5× loading buffer and heated in a 100 °C water bath for 15 min. The samples were subjected to SDS-PAGE electrophoresis, followed by transfer onto a PVDF membrane (Millipore, Darmstadt, Germany). The membrane was blocked with 5% BSA for 2 h at room temperature and incubated sequentially with primary and HRP-conjugated secondary antibodies. Finally, signal detection was performed using an ECL detection system (Clinx, Shanghai, China).

For test [7], the system named is YWHAB knockdown HCC cells. Kind of test: MTT IC50 in YWHAB knockdown HCC cells. It counts as cell-based, human. Particulars: 48 h, vs scramble. The procedure:
Cell viability was assessed using MTT experiments. Cells, together with KA, were seeded into 96-well plates at a density of 2000 cells per well with three replicates per condition. DMSO was used as a control. At designated time points, 20 μL of MTT (Sigma, St. Louis, MO, USA) solution was added to each well and incubated for 3 h. After removing the culture medium, 200 μL of DMSO was added to dissolve the formazan crystals. The absorbance was then measured using a microplate reader at a wavelength of 560 nm.
Short hairpin (sh) RNA targeting YWHAB was cloned into the pLKO.1-puro plasmid, with the sequences listed in Supplementary Table S1. Flag-tagged YWHAB, MYC-tagged YWHAB, and Flag-tagged Raf1 plasmids were purchased from Miaoling (Wuhan, China). Transfection was performed by introducing the specified plasmids into HEK293FT cells using Lipofectamine 2000 (Thermo, New York, NY, USA), following the manufacturer’s instructions. Viral supernatant or cells were collected two days post-transfection. For infection, HCC cells were treated with viral supernatant and polybrene (Sigma, Virginia Beach, VA, USA). After two rounds of infection, the cells were stably selected by using puromycin (Sigma, Virginia Beach, VA, USA).

The target in test [8] is T1, Raf1 and YWHAB interaction (Homo sapiens, UniProt P31946).
T1 construct: host or cells: HEK 293T
T1 sequence (P31946 1-246): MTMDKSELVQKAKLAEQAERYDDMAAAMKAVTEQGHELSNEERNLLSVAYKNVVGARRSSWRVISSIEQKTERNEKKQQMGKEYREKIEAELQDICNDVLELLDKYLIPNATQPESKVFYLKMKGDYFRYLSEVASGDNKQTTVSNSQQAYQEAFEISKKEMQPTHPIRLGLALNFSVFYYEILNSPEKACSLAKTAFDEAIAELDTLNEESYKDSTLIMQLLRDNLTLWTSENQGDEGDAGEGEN
The experiment in a line: Co-immunoprecipitation of MYC-YWHAB and FLAG-Raf 1 in HEK 293T. It counts as cell-based. Particulars: 25 μM and 30 μM, HEK 293T overexpressing MYC-YWHAB and FLAG-Raf 1.

The values below come from paper PMC12523843, “Kuwanon A Targeted YWHAB in Hepatocellular Carcinoma Cells to Inhibit the Raf/MEK/ERK Signaling Pathway” (Cells, 2025).

As to `CC(C)=CCc1c(-c2ccc(O)c3c2OC(C)(C)C=C3)oc2cc(O)cc(O)c2c1=O` [KA, Kuwanon A], the “viability of HCC cells (CCK8)” value in test [1] is on record as “significantly inhibited the viability of HCC cells”. Further, the “nuclear translocation of ERK” value in test [2] is “inhibited the nuclear translocation of ERK”. Also, the “migration/invasion under YWHAB overexpression (wound healing and Transwell)” value in test [3] (YWHAB-overexpressing HCC cells compared to normal tumor cells, KA 15 μM, 48 h) is “less effect of KA on the migration/invasion”. In addition, in test [3] (with Matrix-Gel), the “invasive capacity of HCC cells (Transwell)” value is “inhibited the invasive capacity of HCC cells”. Moreover, the “number of HCC cells migrating through the polycarbonate membrane (Transwell)” value in test [3] (without Matrix-Gel) is recorded as “significant decrease in the number of HCC cells migrating”. In test [4], the “wound healing (cell scratch assay)” value is on record as “significant reduction in wound healing”. In addition, the survival time result in test [5] is “significantly extended”. In addition, in test [6] (YWHAB-overexpressing HCC cells, KA 15 μM, 48 h), the “KA's effects on MEK1/2 and ERK1/2 phosphorylation under YWHAB overexpression” value is listed as “partly abrogated”. In addition, the “phosphorylation levels of MEK1/2 and ERK1/2 (Western blot)” value in test [6] (indicated concentrations 48 h, 15 μM for 24 or 48 h) was “significant downregulation of the phosphorylation levels of MEK1/2 and ERK1/2”. Further, the “IC50 of KA after knockdown of YWHAB” value in test [7] is given as “significant increase in the IC50”. Further, the “amount of YWHAB interacting with Raf1 (co-immunoprecipitation)” value in test [8] is recorded as “reduction in the amount of YWHAB interacting with Raf1”.
